The test system of test [1] is Myzus persicae, US1L. Nature of the test: Bioassay: M. persicae protein on four pepper plants treated with cis-jasmone and PBO (1, 5 or 10 adults per plant). Format: in vivo. The settings on record: for Av. Total Insect Protein μg: Bioassay, M. persicae (US1L), average of weeks 1 to 3; for μg (Av) Total Protein (M. persicae): four pepper plants, 7 days. The procedure:
(§1) In all bioassay experiments the control plants were sprayed with deionised water. Initially seven treatments were used (Table 1) to test all chemical variables. All treatments were applied hydraulically with a spray simulator after which the plants were separated according to treatment (with cis-jasmone controls being separated) and left for 2 hours prior to insect application.
Analysis of protein in each treatment was conducted using Bradford Reagent: the data were analysed using the computer programme ‘GraFit’ (Erithacus software, Berkeley). To calculate the calibration curve a single logarithmic curve was used with regression analysis taking the values of the treatment wells (averages of the three readings taken: technical replicates). […]
To investigate developmental/fecundity effects of cis-jasmone+/−PBO E on Myzus persicae when applied to sweet peppers, one adult was added to the plants. Aphids were brushed from all plants and each leaf checked individually to ensure none remained. The aphid mass for each treatment was assessed for total protein (total from all four plants in the treatment) using Bradford reagent. The amount of aphid protein present on the plants 7 days after treatment was measured.
Myzus persicae was applied to sweet peppers at the rate of five adults were added per plant. Aphids were brushed from all plants and each leaf checked individually to ensure none remained. The aphid mass for each treatment was assessed for total protein (total from all four plants in the treatment) using Bradford reagent. The amount of aphid protein present on the plants 7 days after treatment was measured (for further information see Example 3).
Myzus persicae were applied to sweet peppers at the rate of ten adults per plant. Aphids were brushed from all plants and each leaf checked individually to ensure none remained. The aphid mass for each treatment was assessed for total protein (total from all four plants in the treatment) using Bradford reagent. The amount of aphid protein present on the plants 7 days after treatment was measured (for further information see Example 3).

The test system of the next test is aphid (M. persicae). Nature of the test: Bioassay: M. persicae protein on potato, pepper and black mustard plants treated with BABA and/or PBO. Type of test: in vivo, Myzus persicae. The settings on record: 3 adult apterous aphids per plant, 3 mM BABA root drench, PBO E spray, 7 days. Here is the method:
In all bioassay experiments the control plants were sprayed with deionised water. Initially seven treatments were used (Table 1b) to test all chemical variables. […] Analysis of protein in each treatment was conducted using Bradford Reagent: the data were analysed using the computer programme ‘GraFit’ (Erithacus software, Berkeley). To calculate the calibration curve a single logarithmic curve was used with regression analysis taking the values of the treatment wells (averages of the three readings taken: technical replicates). Laboratory tests were undertaken to compare effects of combined and single treatments of PBO and BABA on control of aphid (M. persicae) on potato, pepper, and black mustard and whitefly (B. tabaci) on cotton and tomato. All tests included untreated and blank (water) controls, and both single and combined applications of PBO and BABA. […] To investigate developmental/fecundity effects of BABA+/−PBO E (see Table 1) on Myzus persicae when applied to plants, adults were added to the plants and then using Bradford reagent, the amount of aphid protein present on the plants 7 days after treatment was measured. Esterase levels were also tested after the same interval to check for the possible induction of metabolic enzymes when using BABA. Aphids were brushed from all plants and each leaf checked individually to ensure none remained. The aphid mass for each treatment was weighed before total protein was assessed (total from all five plants in the treatment).

The test system of a further test is whitefly (B. tabaci). Nature of the test: Bioassay: B. tabaci pupae protein on cotton and tomato plants treated with BABA and/or PBO. Format: in vivo, Bemisia tabaci. The settings on record: 3 mM BABA root drench, PBO E spray. Here is the method: In all bioassay experiments the control plants were sprayed with deionised water. Initially seven treatments were used (Table 1b) to test all chemical variables. […] Analysis of protein in each treatment was conducted using Bradford Reagent: the data were analysed using the computer programme ‘GraFit’ (Erithacus software, Berkeley). To calculate the calibration curve a single logarithmic curve was used with regression analysis taking the values of the treatment wells (averages of the three readings taken: technical replicates). Laboratory tests were undertaken to compare effects of combined and single treatments of PBO and BABA on control of aphid (M. persicae) on potato, pepper, and black mustard and whitefly (B. tabaci) on cotton and tomato. All tests included untreated and blank (water) controls, and both single and combined applications of PBO and BABA. […] Adults were added to the plant 2 days after treatment, and removed after 24 h. The eggs laid were then left for 16-18 days until they reached the pupal stage. The total pupal protein on the plant was tested using the Bradford reagent.

A further test deals with first instar aphids. Nature of the test: BABA root drench concentration series, aphid population growth on brassica and potato. The conditions noted are these: series 1-10 mM, aphids weighed after 1 week. Format: in vivo. Here is the method:
Using example crops of brassica [Brassica nigra] and potato [Solanum tuberosum]; BABA was added as a drench to the roots to ‘prime’ the plants in a series of concentrations (1-10 mM). The plants were artificially infested with a set number of first instar aphids (characterised as insecticide-resistant or -susceptible) and left for 1 week. At the end of this period, all aphids were removed and weighed to determine the growth of the population. This identified the optimal concentration of BABA to use to produce maximum secondary metabolites within the plant. All concentrations were lower than that which could cause direct damage to the crop. 3 mM BABA was identified as optimal for the conditions employed.

Test [2] relates to Myzus persicae, US1L. Put plainly: Glasshouse simulator trial: M. persicae protein on pepper plants treated with cis-jasmone and PBO. Type of test: in vivo. The settings on record: for μg (Av) Total Protein (M. persicae): simulator, 25 pepper plants per treatment, three adult apterous aphids per plant, 7 days. Here is the method:
as §1
(§2) Analysis of protein in each treatment was conducted using Bradford Reagent: the data were analysed using the computer programme ‘GraFit’ (Erithacus software, Berkeley). To calculate the calibration curve a single logarithmic curve was used with regression analysis taking the values of the treatment wells (averages of the three readings taken: technical replicates).
To investigate developmental/fecundity effects of cis-jasmone+/−PBO (see Table 1) on Myzus persicae when applied to sweet peppers, adults were added to the plants and then using Bradford reagent, the amount of aphid protein present on the plants 7 days after treatment was measured. Esterase levels were also tested after the same interval to check for the possible induction of metabolic enzymes when using cis-jasmone. Aphids were brushed from all plants and each leaf checked individually to ensure none remained. The aphid mass for each treatment was weighed before total protein was assessed (total from all […] plants in the treatment).
Myzus persicae were applied to sweet peppers at the rate of three adults per plant. Aphids were brushed from all plants and each leaf checked individually to ensure none remained. The aphid mass for each treatment was assessed for total protein (total from all 25 plants in the treatment) using Bradford reagent. The amount of aphid protein present on the plants 7 days after treatment was measured. Plants were put into glasshouse simulators (one/treatment) and kept at 28° C., 12 L: […] and 80% R.H.

Test [3] relates to Bemisia tabaci, GUA MIX. Put plainly: Bioassay: B. tabaci pupae protein on one tomato plant treated with cis-jasmone and PBO. Type of test: in vivo. The conditions noted are these: for μg (Av) Total Protein (B. tabaci pupae): one tomato plant, ten adult whiteflies, ~16 days. The procedure: as §1, §2
(§3) A new method for the investigation of the development of whitefly to the pupal stage on tomatoes and cotton was used. […] These were checked for protein after ˜16 days using Bradford reagent.
(§4) Adults were added to the plant 2 h after treatment, and removed after 24 h. The eggs laid were then left for 16-18 days until they reached the pupal stage. The total pupal protein on the plant was tested using the Bradford reagent.

Test [4] concerns Bemisia tabaci, GUA MIX. Put plainly: Glasshouse simulator trial: B. tabaci pupae protein on tomato plants treated with cis-jasmone and PBO. Type of test: in vivo. The conditions noted are these: for μg (Av) Total Protein (B. tabaci pupae): simulator, ten tomato plants per treatment, ten adult whiteflies per plant, ~16 days. Here is the method: as §1, §2, §3, §4
As described above 10 adult females were released on to each tomato plant, ten/treatment and after ˜16 days pupae were removed using a scalpel blade. These were checked for total protein using Bradford reagent. Plants were put into glasshouse simulators (one/treatment) and kept at 28° C., 12 L: […] and 80% R.H.

A further test has as its system B. tabaci. Put plainly: B. tabaci pupae protein on cotton plants treated with PBO and/or microencapsulated cis-jasmone. The settings on record: five cotton plants per treatment, 5 adult female whiteflies per plant, ~16 days. Format: in vivo, Bemisia tabaci. Here is the method:
as §3, §4

In a further test the test system is Aphis gossypii. Nature of the test: A. gossypii protein on cotton plants treated with propyl gallate and cis-jasmone. Type of test: in vivo. The conditions noted are these: A. gossypii on cotton.
Where [5] appears, read: five adult apterous aphids per plant, week 1.
Where [6] appears, read: five adult apterous aphids per plant, week 2.
The mark [7] stands for this setting: five adult apterous aphids per plant, week 3.
Setting [8] is: one adult apterous aphid per plant, week 1.
Where [9] appears, read: one adult apterous aphid per plant, week 2.
Setting [10] is: one adult apterous aphid per plant, week 3.
[11] abbreviates: ten adult apterous aphids per plant, week 1.
Where [12] appears, read: ten adult apterous aphids per plant, week 2.
[13] abbreviates: ten adult apterous aphids per plant, week 3.

Entries after “also recorded” stand apart in the source; their conditions may differ.

As to “2-(2-butoxyethoxy)ethyl 6-propylpiperonyl ether [PBO T + Acetone]”, the “Av. Total Insect Protein μg” value in the test on Myzus persicae, US1L [1] (1 adult/plant) is 11.610 µg; with Myzus persicae, US1L [1] (5 adults/plant) it was 20.370 µg; with Myzus persicae, US1L [1] (10 adults/plant) it was 34.830 µg. Moreover, the “μg (Av) Total Protein (M. persicae)” value with Myzus persicae, US1L [1] (setting [5]) came to 22.30 µg; with Myzus persicae, US1L [1] (setting [6]), 16.50 µg; in the test with Myzus persicae, US1L [1] (setting [7]), 22.30 µg; with Myzus persicae, US1L [1] (setting [8]) it was 12.23 µg; in the test with Myzus persicae, US1L [1] (setting [9]), 12.30 µg; with Myzus persicae, US1L [1] (setting [10]) it was 10.30 µg. In addition, the “μg (Av) Total Protein (M. persicae)” value in the test with Myzus persicae, US1L [1] (setting [11]) was determined as 37.68 µg; in the test on Myzus persicae, US1L [1] (setting [12]) it was 33.6 µg; with Myzus persicae, US1L [1] (setting [13]), 33.2 µg.
As to `CC(N)CC(=O)O` (stereo not drawn) [BABA, beta aminobutyric acid], the “Protein A (Av)” value is 14.56 µg with aphid (M. persicae) (five black mustard plants, week 1); 15.10 µg with aphid (M. persicae) (five black mustard plants, week 2); 14.10 µg in the test with aphid (M. persicae) (five black mustard plants, week 3); 15.10 µg in the test on aphid (M. persicae) (five pepper plants, week 1); 16.10 µg with aphid (M. persicae) (five pepper plants, week 2); 15.00 µg in the test on aphid (M. persicae) (five pepper plants, week 3). Moreover, the “Protein A (Av)” value was determined as 7.80 µg in the test with aphid (M. persicae) (five potato plants, week 1); 7.90 µg in the test with aphid (M. persicae) (five potato plants, week 2); 8.30 µg in the test with aphid (M. persicae) (five potato plants, week 3). Besides, the “Protein WF (Av)” value in the test with whitefly (B. tabaci) (cotton plants, ~16 days, week 1) is 0.1 µg; in the test with whitefly (B. tabaci) (cotton plants, ~16 days, week 2) it was 0.2 µg; in the test on whitefly (B. tabaci) (cotton plants, ~16 days, week 3), 0.2 µg; in the test on whitefly (B. tabaci) (tomato plants, week 1), 0.1 µg; in the test with whitefly (B. tabaci) (tomato plants, week 2) it was 0.23 µg; with whitefly (B. tabaci) (tomato plants, week 3), 0.15 µg. Further, the “optimal concentration of BABA” value with first instar aphids is given as 3 mM.
On to `CC/C=C\CC1=C(C)CCC1=O` [CJ, cis-jasmone], for which the “Av. Total Insect Protein μg” value is 13.842 µg in the test on Myzus persicae, US1L [2] (Simulator, M. persicae (US1L) on Pepper (BellBoy), average of weeks 1 to 3); 0.167 µg in the test on Bemisia tabaci, GUA MIX [3] (Bioassay, Bemisia tabaci (GUA MIX), average of weeks 1 to 3); 0.104 µg in the test with Bemisia tabaci, GUA MIX [4] (Simulator, Bemisia tabaci (GUA MIX) on Tomato (Carousel), average of weeks 1 to 3); 7.690 µg in the test on Myzus persicae, US1L [1] (1 adult/plant); 11.330 µg in the test on Myzus persicae, US1L [1] (5 adults/plant); 25.210 µg in the test on Myzus persicae, US1L [1] (10 adults/plant). In addition, the “μg (Av) Total Protein (M. persicae)” value with Myzus persicae, US1L [2] (week 1) is 13.82 µg; in the test with Myzus persicae, US1L [2] (week 2) it was 13.8 µg; in the test with Myzus persicae, US1L [2] (week 3) it was 13.9 µg; in the test on Myzus persicae, US1L [1] (setting [5]), 11.00 µg; with Myzus persicae, US1L [1] (setting [6]) it was 11.99 µg; in the test on Myzus persicae, US1L [1] (setting [7]) it was 11.00 µg. The “μg (Av) Total Protein (M. persicae)” value in the test on Myzus persicae, US1L [1] (setting [8]) was determined as 11.00 µg; in the test on Myzus persicae, US1L [1] (setting [9]), 3.27 µg; with Myzus persicae, US1L [1] (setting [10]) it was 8.80 µg; with Myzus persicae, US1L [1] (setting [11]), 25.14 µg; with Myzus persicae, US1L [1] (setting [12]), 25.4 µg; with Myzus persicae, US1L [1] (setting [13]), 25.1 µg. For the same compound, the “μg (Av) Total Protein (B. tabaci pupae)” value is 0.1 µg with Bemisia tabaci, GUA MIX [3] (week 1); 0.2 µg with Bemisia tabaci, GUA MIX [3] (week 2); 0.2 µg in the test on Bemisia tabaci, GUA MIX [3] (week 3); 0.109 µg with Bemisia tabaci, GUA MIX [4] (week 1); 0.102 µg with Bemisia tabaci, GUA MIX [4] (week 2); 0.100 µg with Bemisia tabaci, GUA MIX [4] (week 3). Besides, the “Protein WF (Av)” value is 0.03 µg in the test on B. tabaci (week 1) and 0.06 µg with B. tabaci (week 2).
As for `CCCOC(=O)c1cc(O)c(O)c(O)c1` [propyl gallate, Propyl 3,4,5-trihydroxybenzoate], in the test on Aphis gossypii, the “effect of propyl gallate on efficacy of microencapsulated cis-Jasmone (in words)” value is reported as “significantly (p<0.05) improves the efficacy of microencapsulated cis-Jasmone; also recorded: potentiates microencapsulated cis-Jasmone at least as well as PBO”.
